The record followed here is ChEMBL document CHEMBL5465560, “Selectivity Literature for EUbOPEN Chemogenomic Library” (2024).

The target of test [1] is T1, Mitogen-activated protein kinase kinase kinase 15 (Homo sapiens) (UniProt Q6ZN16).
T1 sequence (whole entry): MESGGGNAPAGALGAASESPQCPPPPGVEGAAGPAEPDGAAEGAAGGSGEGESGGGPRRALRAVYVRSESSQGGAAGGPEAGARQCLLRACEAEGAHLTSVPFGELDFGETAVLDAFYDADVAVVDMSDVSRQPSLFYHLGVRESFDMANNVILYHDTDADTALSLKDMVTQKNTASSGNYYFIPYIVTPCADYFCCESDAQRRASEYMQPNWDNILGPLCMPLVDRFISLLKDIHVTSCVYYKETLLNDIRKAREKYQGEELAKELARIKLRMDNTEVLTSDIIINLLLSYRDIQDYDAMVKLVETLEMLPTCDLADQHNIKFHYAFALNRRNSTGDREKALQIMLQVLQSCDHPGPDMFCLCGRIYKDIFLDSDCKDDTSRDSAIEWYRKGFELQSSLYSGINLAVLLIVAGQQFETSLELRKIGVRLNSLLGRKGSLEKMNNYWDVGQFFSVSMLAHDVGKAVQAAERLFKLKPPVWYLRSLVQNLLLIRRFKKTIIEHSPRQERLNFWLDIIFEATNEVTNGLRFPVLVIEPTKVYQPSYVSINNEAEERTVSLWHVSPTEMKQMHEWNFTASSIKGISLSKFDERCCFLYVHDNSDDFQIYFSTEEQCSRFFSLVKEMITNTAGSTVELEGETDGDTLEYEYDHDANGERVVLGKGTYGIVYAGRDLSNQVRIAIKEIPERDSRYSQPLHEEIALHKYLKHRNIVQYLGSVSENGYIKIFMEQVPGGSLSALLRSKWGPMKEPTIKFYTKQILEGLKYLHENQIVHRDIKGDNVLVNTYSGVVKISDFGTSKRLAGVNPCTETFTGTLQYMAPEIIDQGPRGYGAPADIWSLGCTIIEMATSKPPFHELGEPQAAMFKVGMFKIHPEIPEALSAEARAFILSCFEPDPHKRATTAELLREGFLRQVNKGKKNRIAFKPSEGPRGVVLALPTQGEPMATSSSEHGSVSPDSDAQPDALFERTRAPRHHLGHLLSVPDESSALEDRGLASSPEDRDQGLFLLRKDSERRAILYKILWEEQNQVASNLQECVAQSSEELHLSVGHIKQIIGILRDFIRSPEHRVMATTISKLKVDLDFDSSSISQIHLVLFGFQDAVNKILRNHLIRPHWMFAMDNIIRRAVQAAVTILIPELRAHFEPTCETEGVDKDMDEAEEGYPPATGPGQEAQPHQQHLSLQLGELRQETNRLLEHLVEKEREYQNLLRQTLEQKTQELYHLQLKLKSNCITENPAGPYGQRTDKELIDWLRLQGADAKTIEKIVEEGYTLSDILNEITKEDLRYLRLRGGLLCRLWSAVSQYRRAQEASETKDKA
The following applies: at 10 µM.

Test [2] deals with Fibroblast growth factor receptor 2 (Homo sapiens) (UniProt P21802). Description: Selectivity interaction (KinomeScan (DiscoverX)) EUB0000092b FGFR2. The following applies: at 10 µM.
Sequence of Fibroblast growth factor receptor 2 (Homo sapiens) (P21802 22-821 limits assumed): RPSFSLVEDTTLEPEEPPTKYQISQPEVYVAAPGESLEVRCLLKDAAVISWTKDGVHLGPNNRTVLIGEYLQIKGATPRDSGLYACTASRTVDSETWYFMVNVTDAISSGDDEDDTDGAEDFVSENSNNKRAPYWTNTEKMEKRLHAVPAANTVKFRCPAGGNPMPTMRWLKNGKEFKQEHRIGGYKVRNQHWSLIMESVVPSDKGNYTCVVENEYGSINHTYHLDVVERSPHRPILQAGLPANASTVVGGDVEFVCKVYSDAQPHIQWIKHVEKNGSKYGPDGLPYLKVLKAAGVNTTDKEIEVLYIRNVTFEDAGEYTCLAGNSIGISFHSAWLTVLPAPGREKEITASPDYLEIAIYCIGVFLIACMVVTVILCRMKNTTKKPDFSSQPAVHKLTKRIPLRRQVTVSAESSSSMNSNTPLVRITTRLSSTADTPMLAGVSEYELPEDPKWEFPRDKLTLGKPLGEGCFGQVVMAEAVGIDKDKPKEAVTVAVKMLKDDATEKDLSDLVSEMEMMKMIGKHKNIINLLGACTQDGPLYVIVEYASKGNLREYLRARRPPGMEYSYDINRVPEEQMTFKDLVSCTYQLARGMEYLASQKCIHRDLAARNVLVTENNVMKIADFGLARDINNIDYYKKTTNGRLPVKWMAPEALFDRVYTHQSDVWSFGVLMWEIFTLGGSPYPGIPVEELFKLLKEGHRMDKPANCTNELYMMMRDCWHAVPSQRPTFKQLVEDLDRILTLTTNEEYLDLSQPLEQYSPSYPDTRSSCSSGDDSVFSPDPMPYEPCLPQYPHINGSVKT
Test [3] addresses Serine/threonine-protein kinase Nek7 (Homo sapiens) (UniProt Q8TDX7). The test can be described thus: Selectivity interaction (KinomeScan (DiscoverX)) EUB0001049a NEK7. As to conditions: at 1 µM.
Test [4] has as its target T2, Ankyrin repeat and protein kinase domain-containing protein 1 (Homo sapiens) (UniProt Q8NFD2).
T2 sequence (whole entry): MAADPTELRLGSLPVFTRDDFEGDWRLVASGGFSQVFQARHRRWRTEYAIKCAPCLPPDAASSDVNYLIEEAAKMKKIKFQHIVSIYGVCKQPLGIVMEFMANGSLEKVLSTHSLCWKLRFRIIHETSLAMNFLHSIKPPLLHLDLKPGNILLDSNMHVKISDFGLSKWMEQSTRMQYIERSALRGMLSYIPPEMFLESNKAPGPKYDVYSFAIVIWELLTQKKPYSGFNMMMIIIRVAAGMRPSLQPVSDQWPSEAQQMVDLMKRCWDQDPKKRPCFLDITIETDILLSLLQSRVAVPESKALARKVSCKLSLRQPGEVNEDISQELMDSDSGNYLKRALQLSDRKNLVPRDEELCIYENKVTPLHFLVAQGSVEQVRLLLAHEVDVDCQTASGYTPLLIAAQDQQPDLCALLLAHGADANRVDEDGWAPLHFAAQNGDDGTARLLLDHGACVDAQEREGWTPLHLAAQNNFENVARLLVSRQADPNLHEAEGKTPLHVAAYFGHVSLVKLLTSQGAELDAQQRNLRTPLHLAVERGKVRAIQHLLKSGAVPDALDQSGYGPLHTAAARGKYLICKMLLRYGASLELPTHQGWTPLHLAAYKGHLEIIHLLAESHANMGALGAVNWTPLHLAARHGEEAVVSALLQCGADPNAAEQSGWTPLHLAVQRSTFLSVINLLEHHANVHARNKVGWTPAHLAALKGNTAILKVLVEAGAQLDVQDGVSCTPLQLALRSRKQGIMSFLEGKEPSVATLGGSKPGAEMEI
Description: Selectivity interaction (KinomeScan (DiscoverX)) EUB0000666a ANKK1. The following applies: at 10 µM.

Test [5] has as its target Ephrin type-A receptor 7 (Homo sapiens) (UniProt Q15375). The test can be described thus: Selectivity interaction (KinomeScan (DiscoverX)) EUB0001619a EPHA7. The following applies: at 1 µM.
The target in test [6] is T3, Sphingosine kinase 2 (Homo sapiens) (UniProt Q9NRA0).
T3 sequence (whole entry): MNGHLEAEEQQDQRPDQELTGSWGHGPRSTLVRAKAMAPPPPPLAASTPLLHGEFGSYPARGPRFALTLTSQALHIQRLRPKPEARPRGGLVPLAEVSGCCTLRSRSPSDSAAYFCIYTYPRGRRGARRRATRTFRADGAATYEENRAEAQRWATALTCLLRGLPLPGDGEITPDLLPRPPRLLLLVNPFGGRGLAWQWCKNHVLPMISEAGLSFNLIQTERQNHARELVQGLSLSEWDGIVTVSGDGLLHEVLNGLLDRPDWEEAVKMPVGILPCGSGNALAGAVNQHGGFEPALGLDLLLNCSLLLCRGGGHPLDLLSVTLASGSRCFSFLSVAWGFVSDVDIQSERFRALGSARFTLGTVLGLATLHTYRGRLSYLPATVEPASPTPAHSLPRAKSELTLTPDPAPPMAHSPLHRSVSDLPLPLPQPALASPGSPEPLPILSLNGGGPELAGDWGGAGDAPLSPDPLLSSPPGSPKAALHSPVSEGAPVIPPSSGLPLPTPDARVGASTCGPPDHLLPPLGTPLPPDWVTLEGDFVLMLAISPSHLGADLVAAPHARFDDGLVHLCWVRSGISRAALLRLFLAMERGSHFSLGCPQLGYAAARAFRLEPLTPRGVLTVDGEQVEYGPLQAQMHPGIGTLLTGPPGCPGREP
The test can be described thus: Selectivity interaction (Kinase panel (literature)) EUB0001199aCl SPHK2. The following applies: at 1 µM.

Test [7] deals with Tyrosine-protein kinase HCK (Homo sapiens) (UniProt P08631). The test can be described thus: Selectivity interaction (KinomeScan (DiscoverX)) EUB0000618a HCK. As to conditions: at 10 µM.
Sequence of Tyrosine-protein kinase HCK (Homo sapiens) (P08631 2-526 limits assumed): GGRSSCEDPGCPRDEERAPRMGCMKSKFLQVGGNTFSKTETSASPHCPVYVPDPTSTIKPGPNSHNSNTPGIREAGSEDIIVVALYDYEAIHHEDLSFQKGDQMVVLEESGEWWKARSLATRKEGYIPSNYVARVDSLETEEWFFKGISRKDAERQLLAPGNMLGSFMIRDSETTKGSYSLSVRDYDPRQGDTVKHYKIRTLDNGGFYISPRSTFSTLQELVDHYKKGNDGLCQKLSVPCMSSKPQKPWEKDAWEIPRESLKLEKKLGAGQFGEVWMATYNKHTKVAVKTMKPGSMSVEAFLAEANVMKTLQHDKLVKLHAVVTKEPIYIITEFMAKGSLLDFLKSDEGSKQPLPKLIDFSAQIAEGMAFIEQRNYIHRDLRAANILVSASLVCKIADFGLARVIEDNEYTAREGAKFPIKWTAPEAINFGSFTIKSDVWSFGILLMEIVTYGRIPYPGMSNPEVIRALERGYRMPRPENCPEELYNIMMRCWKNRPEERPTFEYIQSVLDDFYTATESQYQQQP

Sequence of Serine/threonine-protein kinase Nek7 (Homo sapiens) (Q8TDX7 whole entry, looked up, the tested form may be a part): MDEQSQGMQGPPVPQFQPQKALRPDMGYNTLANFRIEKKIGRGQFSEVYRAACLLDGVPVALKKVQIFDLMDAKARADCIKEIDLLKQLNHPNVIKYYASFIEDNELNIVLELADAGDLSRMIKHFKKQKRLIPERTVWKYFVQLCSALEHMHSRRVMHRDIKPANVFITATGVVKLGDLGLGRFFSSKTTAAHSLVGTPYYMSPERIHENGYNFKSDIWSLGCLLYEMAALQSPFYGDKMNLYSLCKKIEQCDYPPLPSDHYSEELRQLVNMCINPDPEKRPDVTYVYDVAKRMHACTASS
Sequence of Ephrin type-A receptor 7 (Homo sapiens) (Q15375 28-998 limits assumed): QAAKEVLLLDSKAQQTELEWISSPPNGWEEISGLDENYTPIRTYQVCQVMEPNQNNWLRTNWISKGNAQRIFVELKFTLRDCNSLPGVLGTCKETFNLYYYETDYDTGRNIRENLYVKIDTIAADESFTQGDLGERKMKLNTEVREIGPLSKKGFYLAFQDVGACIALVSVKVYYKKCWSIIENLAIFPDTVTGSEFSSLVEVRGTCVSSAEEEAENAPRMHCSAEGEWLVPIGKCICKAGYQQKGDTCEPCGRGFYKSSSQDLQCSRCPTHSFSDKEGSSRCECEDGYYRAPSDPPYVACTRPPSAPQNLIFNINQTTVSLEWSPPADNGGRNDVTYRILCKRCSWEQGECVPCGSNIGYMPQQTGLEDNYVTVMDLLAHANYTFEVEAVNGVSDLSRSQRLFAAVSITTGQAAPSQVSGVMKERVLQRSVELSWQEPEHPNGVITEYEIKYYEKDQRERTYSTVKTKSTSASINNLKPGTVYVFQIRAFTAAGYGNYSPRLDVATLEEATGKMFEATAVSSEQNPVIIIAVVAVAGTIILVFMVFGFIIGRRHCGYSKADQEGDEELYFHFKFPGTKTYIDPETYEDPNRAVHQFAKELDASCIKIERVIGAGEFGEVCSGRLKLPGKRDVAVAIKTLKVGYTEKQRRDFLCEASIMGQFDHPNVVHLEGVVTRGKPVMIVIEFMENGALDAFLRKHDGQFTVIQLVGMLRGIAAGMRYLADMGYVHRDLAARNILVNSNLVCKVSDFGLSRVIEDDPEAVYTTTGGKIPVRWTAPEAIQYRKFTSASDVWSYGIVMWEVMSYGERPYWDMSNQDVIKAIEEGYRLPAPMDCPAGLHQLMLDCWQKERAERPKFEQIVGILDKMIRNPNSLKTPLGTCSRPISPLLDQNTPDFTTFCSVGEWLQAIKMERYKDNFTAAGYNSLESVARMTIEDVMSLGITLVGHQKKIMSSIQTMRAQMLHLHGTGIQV

Molecule `Cc1cc([C@@H](C)Nc2ccccc2C(=O)O)c2nc(N3CCOCC3)cc(=O)n2c1` [AZD-6482] had a % of control in test [1] of 87%. On to `CCC(=O)N1CCN(c2ccc(-n3c(=O)ccc4cnc5ccc(-c6cnc7ccccc7c6)cc5c43)cc2C(F)(F)F)CC1`, for which the % of control in test [2] worked out at 55%. Turning to `COc1cc(Nc2nc(C)cc(-c3cnn4nc(OC)ccc34)n2)cc(C(F)(F)F)c1`, the % of control in test [3] was determined as 83%. For the molecule `O=C(NOC[C@H](O)CO)c1ccc(F)c(F)c1Nc1ccc(I)cc1F`, the % of control in test [4] came out at 64%.

The molecule `N#Cc1cccc(-c2c[nH]c3ncnc(N4CCOCC4)c23)c1` returned a % of control in test [5] of 100%.

In the case of `CN1Cc2nccc(-c3cn(C)nc3-c3ccc(F)cc3)c2C1=O`, in test [6], the % of inhibition is -7%.

In test [7], `O[C@H]1CC[C@H](Nc2ncc3nc(Nc4c(F)cc(F)cc4F)n([C@H]4CCOC4)c3n2)CC1` displayed a % of control of 100%.
